From US8835428B2, “Diacylglycerol acyltransferase inhibitors” (Piramal Enterprises Limited, priority 2008, dated 2014)

These molecules were tested against T1, hDGAT1 (Homo sapiens, UniProt O75907) (assay: In-vitro DGAT1 assay (hDGAT1 microsomes from Sf9 cells, 14C oleoyl CoA, triglyceride formation)). Settings: At 1 μM.
T1 construct: host or cells: Sf9 insect cells (baculovirus); microsomal preparation
T1 sequence (O75907 1-488): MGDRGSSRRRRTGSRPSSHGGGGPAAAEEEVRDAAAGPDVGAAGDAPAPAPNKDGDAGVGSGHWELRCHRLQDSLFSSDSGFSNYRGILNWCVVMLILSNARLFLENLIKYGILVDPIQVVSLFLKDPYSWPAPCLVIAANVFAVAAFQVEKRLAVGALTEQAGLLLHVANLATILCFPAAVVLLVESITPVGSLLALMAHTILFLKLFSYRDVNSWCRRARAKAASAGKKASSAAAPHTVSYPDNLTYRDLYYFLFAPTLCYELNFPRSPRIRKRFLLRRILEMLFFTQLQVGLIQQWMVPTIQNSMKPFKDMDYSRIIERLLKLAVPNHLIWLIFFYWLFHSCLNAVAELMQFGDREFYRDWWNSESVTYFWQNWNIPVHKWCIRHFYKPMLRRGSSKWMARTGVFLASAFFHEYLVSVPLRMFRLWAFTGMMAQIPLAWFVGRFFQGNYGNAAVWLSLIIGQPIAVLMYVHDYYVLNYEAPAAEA
Format: biochemical
Outline: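 Compounds tested in duplicate at 10, 5 and 1 μM for 10 min at 37 °C. Reaction: Sf9-expressed hDGAT1 microsomes (2.5–10 μg), [14C]oleoyl-CoA plus 409.5–1638 μM dioleoylglycerol, pH 7.4 Tris-HCl with fatty-acid-free BSA. Radiolabelled triglyceride extracted into heptane and scintillation-counted.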
An inhibition at 1 µM of 50 to 75% was found for `COC(=O)[C@@H](NC(=O)c1cc(-c2ccc(NC(=O)Nc3ccc(F)c(F)c3)cc2)no1)C(C)C` [Example 129, (S)-methyl 2-(3-(4-(3-(3,4-difluorophenyl)ureido)phenyl)isoxazole-5-carboxamido)-3-methylbutanoate] in this work. An inhibition at 1 µM of 75 to 100% was found for `CC(C)[C@H](NC(=O)c1cc(-c2ccc(NC(=O)Nc3ccc(F)c(F)c3)cc2)no1)C(=O)O` [Example 130, (S)-2-(3-(4-(3-(3,4-difluorophenyl)ureido)phenyl)isoxazole-5-carboxamido)-3-methylbutanoic acid] in this work.

Same assay, conditions: At 5 μM
An inhibition at 5 µM of 0 to 50% was found for `COC(=O)C(NC(=O)c1cc(-c2ccc(NC(=O)Nc3ccccc3F)cc2C)no1)C(C)C` (centres unmarked) [Example 135, Methyl 2-(3-(4-(3-(2-fluorophenyl)ureido)-2-methylphenyl)isoxazole-5-carboxamido)-3-methylbutanoate] in this work. An inhibition at 5 µM of 75 to 100% was found for `Cc1cc(NC(=O)Nc2ccccc2F)ccc1-c1cc(C(=O)NC(C(=O)O)C(C)C)on1` (centres unmarked) [Example 136, 2-(3-(4-(3-(2-Fluorophenyl)ureido)-2-methylphenyl)isoxazole-5-carboxamido)-3-methylbutanoic acid] in this work.

Same assay, conditions: At 10 μM
An inhibition at 10 µM of 75 to 100% was found for `CC(C)C(NC(=O)c1cc(-c2ccc(NC(=O)Nc3c(F)cccc3F)cc2)no1)C(=O)O` (centres unmarked) [Example 124, 2-(3-(4-(3-(2,6-difluorophenyl)ureido)phenyl)isoxazole-5-carboxamido)-3-methylbutanoic acid] in this work. An inhibition at 10 µM of 50 to 75% was found for `COC(=O)C(NC(=O)c1cc(-c2ccc(NC(=O)Nc3ccc(C)cc3)cc2)no1)C(C)C` (centres unmarked) [Example 125, Methyl 3-methyl-2-(3-(4-(3-p-tolylureido)phenyl)isoxazole-5-carboxamido)butanoate] in this work. An inhibition at 10 µM of 75 to 100% was found for `Cc1ccc(NC(=O)Nc2ccc(-c3cc(C(=O)NC(C(=O)O)C(C)C)on3)cc2)cc1` (centres unmarked) [Example 126, 3-Methyl-2-(3-(4-(3-p-tolylureido)phenyl)isoxazole-5-carboxamido) butanoic acid] in this work. An inhibition at 10 µM of 0 to 50% was found for `COC(=O)C(NC(=O)c1cc(-c2ccc(NC(=O)Nc3ccc(OC)cc3)cc2)no1)C(C)C` (centres unmarked) [Example 127, Methyl 2-(3-(4-(3-(4-methoxyphenyl)ureido)phenyl)isoxazole-5-carboxamido)-3-methylbutanoate] in this work. An inhibition at 10 µM of 75 to 100% was found for `COc1ccc(NC(=O)Nc2ccc(-c3cc(C(=O)NC(C(=O)O)C(C)C)on3)cc2)cc1` (centres unmarked) [Example 128, 2-(3-(4-(3-(4-Methoxyphenyl)ureido)phenyl)isoxazole-5-carboxamido)-3-methylbutanoic acid] in this work. An inhibition at 10 µM of 0 to 50% was found for `COC(=O)C(CC(C)C)NC(=O)c1cc(-c2cc(NC(=O)Nc3ccc(F)cc3)ccc2C)no1` (centres unmarked) [Example 131, Methyl 2-(3-(5-(3-(4-fluorophenyl)ureido)-2-methylphenyl)isoxazole-5-carboxamido)-4-methylpentanoate] in this work. An inhibition at 10 µM of 0 to 50% was found for `Cc1ccc(NC(=O)Nc2ccc(F)cc2)cc1-c1cc(C(=O)NC(CC(C)C)C(=O)O)on1` (centres unmarked) [Example 132, 2-(3-(5-(3-(4-fluorophenyl)ureido)-2-methylphenyl)isoxazole-5-carboxamido)-4-methylpentanoic acid] in this work. An inhibition at 10 µM of 50 to 75% was found for `COC(=O)C(NC(=O)c1cc(-c2ccc(NC(=O)Nc3ccc(F)cc3)cc2C)no1)C(C)C` (centres unmarked) [Example 133, Methyl 2-(3-(4-(3-(4-fluorophenyl)ureido)-2-methylphenyl)isoxazole-5-carboxamido)-3-methylbutanoate] in this work. An inhibition at 10 µM of 75 to 100% was found for `Cc1cc(NC(=O)Nc2ccc(F)cc2)ccc1-c1cc(C(=O)NC(C(=O)O)C(C)C)on1` (centres unmarked) [Example 134, 2-(3-(4-(3-(4-fluorophenyl)ureido)-2-methylphenyl)isoxazole-5-carboxamido)-3-methylbutanoic acid] in this work. An inhibition at 10 µM of 0 to 50% was found for `COC(=O)C(NC(=O)c1cc(-c2ccc(NC(=O)Nc3ccc(F)cc3F)cc2C)no1)C(C)C` (centres unmarked) [Example 137, Methyl 2-(3-(4-(3-(2,4-difluorophenyl)ureido)-2-methylphenyl)isoxazole-5-carboxamido)-3-methylbutanoate] in this work.
